Assays:
[1] = tested on: aldosterone-to-renin ratio (ARR); experiment: Aldosterone-to-renin ratio (ARR) before and 4 h after a single dose of a RAS blocker; format: in vivo, human; conditions: 5 healthy volunteers, 4 h post administration vs predose
Protocol: (§1) FIG. 5: Comparison of the impact of RAS blocker administration on the ARR (upper panel) and the AA2R (lower panel). Plasma samples were collected from healthy volunteers before (Predose) and 4 h post administration of a single dose of an ACE inhibitor (left), renin inhibitor (middle) or angiotensin receptor blocker (ARB, right). Plasma aldosterone concentration, equilibrium angiotensin II concentration and active renin concentration were measured and the ARR and the AA2R was calculated for each sample. For calculation of the ARR, aldosterone concentrations in ng/L were divided by the plasma active renin concentration in ng/L. For calculation of the AA2R, aldosterone concentrations in pmol/L were divided by Ang II concentrations in pmol/L. Mean values of 5 healthy volunteers+/−SEM are shown in the graphs.
Single doses of three different anti-hypertensive drugs were administered to 5 healthy volunteers on 3 different treatment days separated by one week. 4 h following administration of a single dose of 10 mg Enalapril (ACE-Inhibitor), 50 mg Losartan (ARB) or 150 mg Aliskiren (Renin-Inhibitor), heparin blood was collected by venous puncture and plasma was separated by centrifugation. Samples were frozen at −80° C. till analysis.
StSable isotope-labeled aldosterone was added to the stabilized plasma samples at a concentration of 500 pg/ml for internal standardization. Following C18-based solid-phase-extraction, samples were subjected to mass spectrometry analysis using a reversed-phase analytical column (Acquity UPLC® C18, Waters) operating in line with a XEVO TQ-S triple quadrupole mass spectrometer (Waters) in MRM mode. Two different mass transitions were measured per analyte and standard and the concentrations were calculated by relating endogenous signals to internal standard signals under consideration of the corresponding response factors determined by calibration curves in human blank plasma.

[2] = tested on: aldosterone-to-angiotensin II ratio (AA2R); experiment: Aldosterone-to-angiotensin II ratio (AA2R) before and 4 h after a single dose of a RAS blocker; format: in vivo, human; conditions: 5 healthy volunteers, 4 h post administration vs predose, heparin plasma equilibrated 60 min at 37° C.
Protocol: as §1
Single doses of three different anti-hypertensive drugs were administered to 5 healthy volunteers on 3 different treatment days separated by one week. […]
Equilibrium Ang II levels were determined by quantification of the steady-state angiotensin peptide levels in equilibrated heparin plasma samples. […] Following equilibration, plasma angiotensin peptide levels were stabilized by the addition of protease inhibitors and equilibrium peptide levels were subsequently quantified by mass spectrometry. […] Two different mass transitions were measured per analyte and standard and the concentrations were calculated by relating endogenous signals to internal standard signals under consideration of the corresponding response factors determined by calibration curves in human blank plasma.
StSable isotope-labeled aldosterone was added to the stabilized plasma samples at a concentration of 500 pg/ml for internal standardization. […] Two different mass transitions were measured per analyte and standard and the concentrations were calculated by relating endogenous signals to internal standard signals under consideration of the corresponding response factors determined by calibration curves in human blank plasma.

| SMILES | change in the ARR (aldosterone ng/L divided by plasma active renin concentration ng/L) [1] | change in the AA2R (aldosterone pmol/L divided by equilibrium Ang II pmol/L) [2] |
| --- | --- | --- |
| CCCCc1nc(Cl)c(CO)n1Cc1ccc(-c2ccccc2-c2nn[nH]n2)cc1 [Losartan] | highly significant and profound decrease | significant decrease |
| CCOC(=O)[C@H](CCc1ccccc1)N[C@@H](C)C(=O)N1CCC[C@H]1C(=O)O [Enalapril] | highly significant and profound decrease | did not significantly affect |
| COCCCOc1cc(C[C@@H](C[C@H](N)[C@@H](O)C[C@H](C(=O)NCC(C)(C)C(N)=O)C(C)C)C(C)C)ccc1OC [Aliskiren] | highly significant and profound decrease | did not significantly affect |

From patent US10295552B2, “Method for diagnosis of primary hyperaldosteronism” (ATTOQUANT D[…], priority 2013, dated 2019)
